Reference: ChEMBL document CHEMBL1759836, “Microwave assisted one-pot synthesis of highly potent novel isoniazid analogues” (Bioorg Med Chem Lett, 2011)
In brackets after ≈: the same amount, converted by molar mass.

Experiments:
[1] = system: Mycobacterium tuberculosis; assay: Antimicrobial activity against Mycobacterium tuberculosis H37Rv by agar dilution method; format: functional
[2] = Cytotoxicity against african green monkey Vero cells after 72 hrs by MTT assay; format: cell-based; conditions: chlorocebus sabaeus
[3] = system: Mycobacterium tuberculosis; assay: Antimicrobial activity against multidrug-resisntat Mycobacterium tuberculosis by agar dilution method; format: functional
[4] = Selectivity index, ratio of CC50 for african green monkey Vero cells to MIC for Mycobacterium tuberculosis H37Rv; format: functional

Row | SMILES | MIC [1] [µM] | CC50 at 72 h [2] [µM] | MIC [3] [µM] | Selectivity Index [4]
1 | CC1(C)CC(=O)C2=C(C1)N(NC(=O)c1ccncc1)C1=C(C(=O)CC(C)(C)C1)C2c1ccccc1 | 6.66 (≈ 3.13 µg/mL) | – | – | –
2 | Cc1ccccc1C1C2=C(CC(C)(C)CC2=O)N(NC(=O)c2ccncc2)C2=C1C(=O)CC(C)(C)C2 | 3.22 (≈ 1.56 µg/mL) | – | – | –
3 | Cc1cccc(C2C3=C(CC(C)(C)CC3=O)N(NC(=O)c3ccncc3)C3=C2C(=O)CC(C)(C)C3)c1 | 6.44 (≈ 3.11 µg/mL) | – | – | –
4 | Cc1ccc(C2C3=C(CC(C)(C)CC3=O)N(NC(=O)c3ccncc3)C3=C2C(=O)CC(C)(C)C3)cc1 | 6.44 (≈ 3.11 µg/mL) | – | – | –
5 | CC1(C)CC(=O)C2=C(C1)N(NC(=O)c1ccncc1)C1=C(C(=O)CC(C)(C)C1)C2c1ccccc1O | > 12.9 | – | – | –
6 | CC1(C)CC(=O)C2=C(C1)N(NC(=O)c1ccncc1)C1=C(C(=O)CC(C)(C)C1)C2c1cccc(O)c1 | > 12.9 | – | – | –
7 | CC1(C)CC(=O)C2=C(C1)N(NC(=O)c1ccncc1)C1=C(C(=O)CC(C)(C)C1)C2c1ccc(O)cc1 | 12.9 (≈ 6.25 µg/mL) | – | – | –
8 | COc1ccccc1C1C2=C(CC(C)(C)CC2=O)N(NC(=O)c2ccncc2)C2=C1C(=O)CC(C)(C)C2 | 12.5 (≈ 6.25 µg/mL) | – | – | –
9 | COc1ccc(C2C3=C(CC(C)(C)CC3=O)N(NC(=O)c3ccncc3)C3=C2C(=O)CC(C)(C)C3)cc1 | 12.5 (≈ 6.25 µg/mL) | – | – | –
10 | CN(C)c1ccc(C2C3=C(CC(C)(C)CC3=O)N(NC(=O)c3ccncc3)C3=C2C(=O)CC(C)(C)C3)cc1 | 6.1 (≈ 3.13 µg/mL) | – | – | –
11 | CC(C)c1ccc(C2C3=C(CC(C)(C)CC3=O)N(NC(=O)c3ccncc3)C3=C2C(=O)CC(C)(C)C3)cc1 | 1.52 (≈ 0.778 µg/mL) | – | – | –
12 | CC1(C)CC(=O)C2=C(C1)N(NC(=O)c1ccncc1)C1=C(C(=O)CC(C)(C)C1)C2c1ccccc1OCc1ccccc1 | < 0.17 | > 109 | 0.69 (≈ 0.397 µg/mL) | –
13 | CC1(C)CC(=O)C2=C(C1)N(NC(=O)c1ccncc1)C1=C(C(=O)CC(C)(C)C1)C2c1cccc(OCc2ccccc2)c1 | 0.17 (≈ 0.0979 µg/mL) | > 109 | 1.35 (≈ 0.777 µg/mL) | –
14 | CC1(C)CC(=O)C2=C(C1)N(NC(=O)c1ccncc1)C1=C(C(=O)CC(C)(C)C1)C2c1ccc(OCc2ccccc2)cc1 | 0.17 (≈ 0.0979 µg/mL) | > 109 | 0.69 (≈ 0.397 µg/mL) | –
15 | COc1cc(C2C3=C(CC(C)(C)CC3=O)N(NC(=O)c3ccncc3)C3=C2C(=O)CC(C)(C)C3)ccc1O | 3.02 (≈ 1.56 µg/mL) | – | – | –
16 | COc1ccc(C2C3=C(CC(C)(C)CC3=O)N(NC(=O)c3ccncc3)C3=C2C(=O)CC(C)(C)C3)c(OC)c1OC | 11.2 (≈ 6.25 µg/mL) | – | – | –
17 | CC1(C)CC(=O)C2=C(C1)N(NC(=O)c1ccncc1)C1=C(C(=O)CC(C)(C)C1)C2c1ccccc1C(F)(F)F | 0.36 (≈ 0.194 µg/mL) | > 116 | 1.45 (≈ 0.779 µg/mL) | –
18 | CC1(C)CC(=O)C2=C(C1)N(NC(=O)c1ccncc1)C1=C(C(=O)CC(C)(C)C1)C2c1cccc(C(F)(F)F)c1 | 0.18 (≈ 0.0968 µg/mL) | > 116 | 1.45 (≈ 0.779 µg/mL) | >645
19 | CC1(C)CC(=O)C2=C(C1)N(NC(=O)c1ccncc1)C1=C(C(=O)CC(C)(C)C1)C2c1ccc(C(F)(F)F)cc1 | 0.36 (≈ 0.194 µg/mL) | > 116 | 0.74 (≈ 0.398 µg/mL) | –
20 | CC1(C)CC(=O)C2=C(C1)N(NC(=O)c1ccncc1)C1=C(C(=O)CC(C)(C)C1)C2c1ccc(Cl)cc1 | 0.79 (≈ 0.398 µg/mL) | > 124 | 1.54 (≈ 0.776 µg/mL) | –
21 | CC1(C)CC(=O)C2=C(C1)N(NC(=O)c1ccncc1)C1=C(C(=O)CC(C)(C)C1)C2c1ccccc1Br | 0.18 (≈ 0.0987 µg/mL) | > 114 | 2.84 (≈ 1.56 µg/mL) | –
22 | CC1(C)CC(=O)C2=C(C1)N(NC(=O)c1ccncc1)C1=C(C(=O)CC(C)(C)C1)C2c1cccc(Br)c1 | 0.73 (≈ 0.4 µg/mL) | < 114 | 2.84 (≈ 1.56 µg/mL) | –
23 | CC1(C)CC(=O)C2=C(C1)N(NC(=O)c1ccncc1)C1=C(C(=O)CC(C)(C)C1)C2c1ccc(Br)cc1 | 0.73 (≈ 0.4 µg/mL) | < 114 | 2.84 (≈ 1.56 µg/mL) | –
24 | CC1(C)CC(=O)C2=C(C1)N(NC(=O)c1ccncc1)C1=C(C(=O)CC(C)(C)C1)C2c1ccccc1F | 0.41 (≈ 0.2 µg/mL) | > 128 | 1.59 (≈ 0.775 µg/mL) | –
25 | CC1(C)CC(=O)C2=C(C1)N(NC(=O)c1ccncc1)C1=C(C(=O)CC(C)(C)C1)C2c1cccc(F)c1 | 0.41 (≈ 0.2 µg/mL) | > 128 | 0.82 (≈ 0.4 µg/mL) | –
26 | CC1(C)CC(=O)C2=C(C1)N(NC(=O)c1ccncc1)C1=C(C(=O)CC(C)(C)C1)C2c1ccc(F)cc1 | 0.2 (≈ 0.0975 µg/mL) | > 128 | 0.2 (≈ 0.0975 µg/mL) | –
27 | CC1(C)CC(=O)C2=C(C1)N(NC(=O)c1ccncc1)C1=C(C(=O)CC(C)(C)C1)C2c1ccccc1[N+](=O)[O-] | 0.19 (≈ 0.0978 µg/mL) | < 121 | 1.51 (≈ 0.777 µg/mL) | –
28 | CC1(C)CC(=O)C2=C(C1)N(NC(=O)c1ccncc1)C1=C(C(=O)CC(C)(C)C1)C2c1cccc([N+](=O)[O-])c1 | 0.77 (≈ 0.396 µg/mL) | < 121 | 3.03 (≈ 1.56 µg/mL) | –
29 | CC1(C)CC(=O)C2=C(C1)N(NC(=O)c1ccncc1)C1=C(C(=O)CC(C)(C)C1)C2c1ccc([N+](=O)[O-])cc1 | 0.77 (≈ 0.396 µg/mL) | < 121 | 3.03 (≈ 1.56 µg/mL) | –
30 | NNC(=O)c1ccncc1 [ISONIAZID] | 0.73 (≈ 0.1 µg/mL) | > 456 | 45.6 (≈ 6.25 µg/mL) | –
